Measurements from patent US20090118350A1, “Biomarkers for Identifying Efficacy of Tegaserod in Patients with Chronic Constipation” (priority 2005, published 2009).

Test system: patients with chronic constipation
Assay: Clinical trial, secondary efficacy RESP12: increase of 1 or more CSBM/week over baseline after 12 weeks of treatment, by subgroup and genotype
Assay type: in vivo, human
Conditions: for Odds Ratio: 6-mg bid vs placebo; for % Responders T6 / Odds Ratio (T6 v P) / % Responders: 6-mg bid
Description: Introduction. A clinical trial was performed to evaluate the efficacy of tegaserod (Zelmac®/Zelnorm™) at 6 mg bid (12 mg/day) or 2 mg bid (4 mg/day) vs. placebo by measuring the number of complete spontaneous bowel movements (CSBM) during the first 4 weeks of treatment. Secondary objectives included evaluating the number of CSBM during the entire 12-week treatment period, bowel habits, laxative use, and safety and tolerability issues. The clinical trial design consisted of a 2-week baseline period without medication, a 12-week, randomized, double-blind, placebo-controlled treatment period, and a 4-week withdrawal period without study medication. As part of the clinical trial, DNA was collected from patients at screening for pharmacogenetic analysis to evaluate genetic polymorphisms relating to drug targets and disease aetiology.
Clinical assessments. […] The primary efficacy endpoint evaluated was the increase of 1 or more CSBM/week over baseline after 4 weeks of treatment. A secondary endpoint evaluated in this genotyping study was RESP12, the increase of 1 of more CSBM/week over baseline after 12 weeks of treatment. Patients were classified as responders if they met these criteria and had completed at least 7 days of treatment. Additional secondary efficacy assessments were evaluated based on the weekly diary assessments, such as bothersome constipation, bothersome abdominal pain, and satisfaction with bowel habits at the end of the 12-week treatment period (using the baseline value as a co-variant for analysis).
Statistical analysis. Statistical analysis was performed using SAS version 8.2 (The SAS Institute, Cary, N.C., USA). Analysis methods included Fisher's Exact tests, analysis of Covariance (ANCOVA), logistic regression, and Mantel-Haenzel tests to determine odds ratios and 95% confidence intervals, with significance established at p<0.05. Calculation of linkage disequilibrium was performed using the GOLD (graphical overview of linkage disequilibrium) method described by Abecasis & Cookson, Bioinformatics 16: 182-3 (2000).
Secondary efficacy endpoint: response after 12 weeks of treatment. The same comparison as above was performed using the secondary efficacy endpoint of a mean increase of 1 or more CSBM/week over baseline after 12 weeks of treatment. The results for the 12 individual “high responder” SNPs are presented in TABLE 9 and the results using the comparison of individuals with or without at least one of the twelve SNPs is presented in TABLE 10.

[1] = All Caucasians (ITT, >=7 days), Age <65, M + F
[2] = All Caucasians (ITT, >=7 days), Age >=65, M + F
[3] = All Caucasians (ITT, >=7 days), Age All, Female
[4] = All Caucasians (ITT, >=7 days), Age All, M + F
[5] = All Caucasians (ITT, >=7 days), Age All, Male
[6] = All genotyped (ITT, >=7 days), Age <65, M + F
[7] = All genotyped (ITT, >=7 days), Age >=65, M + F
[8] = All genotyped (ITT, >=7 days), Age All, Female
[9] = All genotyped (ITT, >=7 days), Age All, M + F
[10] = All genotyped (ITT, >=7 days), Age All, Male
[11] = All patients (ITT, >=7 days), Age <65, M + F
[12] = All patients (ITT, >=7 days), Age >=65, M + F
[13] = All patients (ITT, >=7 days), Age All, Female
[14] = All patients (ITT, >=7 days), Age All, M + F
[15] = All patients (ITT, >=7 days), Age All, Male
[16] = Caucasians genotyped (ITT, >=7 days), Age <65, M + F
[17] = Caucasians genotyped (ITT, >=7 days), Age >=65, M + F
[18] = Caucasians genotyped (ITT, >=7 days), Age All, Female
[19] = Caucasians genotyped (ITT, >=7 days), Age All, M + F
[20] = Caucasians genotyped (ITT, >=7 days), Age All, Male
[21] = Female (All ages), 0-12 of the 12 SNPs
[22] = Female (All ages), 0 of the 12 SNPs
[23] = Female (All ages), 1-12 of the 12 SNPs

`[H]/N=C(/NCCCCC)N/N=C/c1c[nH]c2ccc(OC)cc12` [tegaserod, Tegaserod] was tested, and the “Odds Ratio” value [1] was 2.8, the “Odds Ratio” value [2] was 1.4 and the “Odds Ratio” value [3] was 2.5. The “Odds Ratio” value [4] was 2.5, the “Odds Ratio” value [5] was 2.5 and the “Odds Ratio” value [6] was 2.6. For the same compound, the “Odds Ratio” value [7] was 2.6, the “Odds Ratio” value [8] was 2.5 and the “Odds Ratio” value [9] was 2.6. The “Odds Ratio” value [10] was 2.9, the “Odds Ratio” value [11] was 2.3 and the “Odds Ratio” value [12] was 1.6. For the same compound, the “Odds Ratio” value [13] was 2.2, the “Odds Ratio” value [14] was 2.3 and the “Odds Ratio” value [15] was 2.6. For the same compound, the “Odds Ratio” value [16] was 3.0, the “Odds Ratio” value [17] was 2.3 and the “Odds Ratio” value [18] was 2.8. For the same compound, the “Odds Ratio” value [19] was 2.8, the “Odds Ratio” value [20] was 3.0 and the “% Responders T6” value (0 of 14 SNPs) was 39%. For the same compound, the “Odds Ratio (T6 v P)” value (0 of 14 SNPs) was 1.2, the “% Responders T6” value (>=1 of 14 SNPs) was 54% and the “Odds Ratio (T6 v P)” value (>=1 of 14 SNPs) was 4.4. For the same compound, the “% Responders T6” value (AQP3 (1838) genotype CC) was 47%, the “Odds Ratio (T6 v P)” value (AQP3 (1838) genotype CC) was 2.7 and the “% Responders T6” value (AQP3 (1838) genotype CG) was 49%. The “Odds Ratio (T6 v P)” value (AQP3 (1838) genotype CG) was 2.5, the “% Responders T6” value (AQP3 (1838) genotype GG) was 64% and the “Odds Ratio (T6 v P)” value (AQP3 (1838) genotype GG) was 8.1. The “% Responders” value [1] was 48%, the “% Responders” value [2] was 38% and the “% Responders” value [3] was 47%. The “% Responders” value [4] was 47%, the “% Responders” value [5] was 45% and the “% Responders” value [6] was 47%. For the same compound, the “% Responders” value [7] was 56%, the “% Responders” value [8] was 47% and the “% Responders” value [9] was 47%. For the same compound, the “% Responders” value [10] was 52%, the “% Responders” value [11] was 46% and the “% Responders” value [12] was 40%. The “% Responders” value [13] was 46%, the “% Responders” value [14] was 46% and the “% Responders” value [15] was 43%. For the same compound, the “% Responders” value [16] was 49%, the “% Responders” value [17] was 53% and the “% Responders” value [18] was 48%. For the same compound, the “% Responders” value [19] was 49%, the “% Responders” value [20] was 57% and the “% Responders T6” value [21] was 48%. For the same compound, the “Odds Ratio (T6 v P)” value [21] was 2.8, the “% Responders T6” value [22] was 36% and the “Odds Ratio (T6 v P)” value [22] was 1.4. The “% Responders T6” value [23] was 61%, the “Odds Ratio (T6 v P)” value [23] was 5.5 and the “% Responders T6” value (HTR3B (3755) genotype AA) was 49%. For the same compound, the “Odds Ratio (T6 v P)” value (HTR3B (3755) genotype AA) was 3.0, the “% Responders T6” value (HTR3B (3755) genotype AC) was 47% and the “Odds Ratio (T6 v P)” value (HTR3B (3755) genotype AC) was 2.3. For the same compound, the “% Responders T6” value (HTR3B (3755) genotype CC) was 67%, the “Odds Ratio (T6 v P)” value (HTR3B (3755) genotype CC) was 5.1 and the “% Responders T6” value (HTR4 (1746) genotype CC) was 44%. For the same compound, the “Odds Ratio (T6 v P)” value (HTR4 (1746) genotype CC) was 3.1, the “% Responders T6” value (HTR4 (1746) genotype CT) was 49% and the “Odds Ratio (T6 v P)” value (HTR4 (1746) genotype CT) was 2.6. The “% Responders T6” value (HTR4 (1746) genotype TT) was 70%, the “Odds Ratio (T6 v P)” value (HTR4 (1746) genotype TT) was 3.2 and the “% Responders T6” value (HTR4 (3743) genotype AA) was 48%. For the same compound, the “Odds Ratio (T6 v P)” value (HTR4 (3743) genotype AA) was 3.7, the “% Responders T6” value (HTR4 (3743) genotype AC) was 52% and the “Odds Ratio (T6 v P)” value (HTR4 (3743) genotype AC) was 4.7. The “% Responders T6” value (HTR4 (3743) genotype CC) was 78%, the “Odds Ratio (T6 v P)” value (HTR4 (3743) genotype CC) was 8.2 and the “% Responders T6” value (HTR4 (3747) genotype AA) was 41%. The “Odds Ratio (T6 v P)” value (HTR4 (3747) genotype AA) was 2.7, the “% Responders T6” value (HTR4 (3747) genotype AT) was 54% and the “Odds Ratio (T6 v P)” value (HTR4 (3747) genotype AT) was 3.1. The “% Responders T6” value (HTR4 (3747) genotype TT) was 65%, the “Odds Ratio (T6 v P)” value (HTR4 (3747) genotype TT) was 3.0 and the “% Responders T6” value (HTR4 (3753) genotype CC) was 45%.
